One block for each molecule: values may come before it.
Tests used:
B16–F10 cells = experiment: RNaseq gene expression profiling; assay type: cell-based, mouse; settings: 24 h
Experimental: AC-340 superinduced CYP24A1 expression in all cell lines tested, and ZG-126 appeared to be a hyperagonist in SK-MEL-28 cells. […] AC-340 treatment produced 3 times more differentially expressed genes (DEGs) than AM-193, with ZG-126 producing an intermediate number (Figure A). […] The varying effects of each treatment on the numbers of regulated genes and the fold changes observed are reflected in plots of log-fold changes and volcano plots (Figure S3B).
A quality control was performed before sequencing in paired-end at 50 M reads by Illumina NovaSeq 6000 S4 PE100. After sequencing, the FASTQ files were sent to us and all downstream analysis were performed on Galaxy (Galaxy (usegalaxy.org)). First, trimmomatic tool was used to remove the adapters from the reads. Then, using the alignment tool, HISAT2, the reads were mapped to the mouse genome. In the next step, the counted reads were annotated and finally the list of differentially expressed genes (DEGs) for each treatment was obtained using the preinstalled R package called Limma.

[1] = test system: VDRE in the mouse Spp1 gene, B16–F10 cells; experiment: ChIP-qPCR at the Spp1 VDRE; assay type: cell-based
From the text: To test this, we performed ChIP assays in B16–F10 cells, analyzing ligand-induced VDR and CBP (Creb binding protein) coactivator recruitment to the well-characterized consensus vitamin D receptor element (VDRE) in the mouse Spp1 gene (Figure A), which is superinduced by AC-340 (Figures C and A). CBP was chosen because it is widely expressed, and previous studies have shown that it is recruited to Cyp24a1 VDREs. […] In contrast, AC-340 recruited almost 3-fold more CBP under the same conditions (Figure C). CBP is a component of a large coactivator assembly recruited by VDR and required for chromatin remodeling due to its H3K27 acetyltransferase activity. − Since we previously observed a substantially higher level of H3K27 acetylation in AC-340-treated B16–F10 cells (Figure C,D), we intend to assess H3K27 acetylation at the Spp1 VDRE.
Cells were then fixed by adding formaldehyde directly to the culture medium to a final concentration of 1% and incubated for 15 min at RT. To quench the fixation, glycine was added to the medium at a final concentration of 125 mM. […] Quantification of immunoprecipitated materials was performed by qPCR and the enrichment of the target gene VDRE in each condition was normalized to the percentage input.

[2] = test system: CYP24A1 in SK-MEL-28 cells; experiment: CYP24A1 induction (RT-qPCR), extended dose–response in SK-MEL-28 cells
HDAC 10 = biological target: T1, HDAC 10 (Homo sapiens, UniProt Q969S8); experiment: HDAC 10 inhibition (Reaction Biology, 10-dose IC50)
T1 sequence (Q969S8 1-669): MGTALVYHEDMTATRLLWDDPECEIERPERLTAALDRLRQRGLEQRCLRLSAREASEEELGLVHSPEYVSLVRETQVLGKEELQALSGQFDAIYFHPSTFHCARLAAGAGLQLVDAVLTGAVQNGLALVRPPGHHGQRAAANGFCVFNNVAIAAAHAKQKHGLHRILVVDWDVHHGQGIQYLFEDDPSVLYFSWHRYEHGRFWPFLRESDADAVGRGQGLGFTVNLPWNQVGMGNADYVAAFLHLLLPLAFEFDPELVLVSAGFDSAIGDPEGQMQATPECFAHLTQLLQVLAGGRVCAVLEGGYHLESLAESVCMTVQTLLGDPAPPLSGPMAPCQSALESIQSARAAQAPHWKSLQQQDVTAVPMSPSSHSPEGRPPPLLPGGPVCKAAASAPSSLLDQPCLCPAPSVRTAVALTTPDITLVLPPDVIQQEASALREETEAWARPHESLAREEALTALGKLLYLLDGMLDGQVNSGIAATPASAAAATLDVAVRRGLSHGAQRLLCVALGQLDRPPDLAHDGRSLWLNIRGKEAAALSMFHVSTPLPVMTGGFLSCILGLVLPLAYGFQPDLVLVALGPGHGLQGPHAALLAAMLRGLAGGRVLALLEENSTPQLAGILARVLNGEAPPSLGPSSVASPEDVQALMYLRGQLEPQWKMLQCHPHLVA

[3] = test system: Cyp24a1 gene in B16–F10 melanoma cells; experiment: Cyp24a1 gene induction (RT-qPCR) as test of VDR agonism; assay type: cell-based, mouse; settings: hybrids 10 μM, 1,25D and SAHA 100 nM, 24 h
[4] = test system: VDR target genes in B16-F10 cells; experiment: RT-qPCR of selected VDR target genes (RNaseq validation); assay type: cell-based, mouse; settings: B16-F10, 24 h, compared with other treatments
From the text: The enhanced response of B16–F10 cells to AC-340 likely reflects the VDR hyperagonist activity observed in Cyp24a1 induction assay (Figure A). […] In 49 of 50 cases, AC-340 superinduced their expression, often several fold (Figure C), consistent with AC-340 being a broad hyperagonist of 1,25D-induced genes.
RNAseq data validation by RT-qPCR of selected VDR target genes in B16-F10
Fig. S4. Validation of the RNAseq data by RT-qPCR.

VDR = test system: VDR; set-up: method as in earlier work; settings: efficacious and well-tolerated dose; ref (ref); cited from earlier work
[5] = biological target: T2, zebrafish vitamin D receptor ligand binding domain (zVDR LBD, 156-453) (zebrafish, UniProt Q9PTN2 156-453); experiment: crystal structure; zVDR LBD (3-7 mg/mL) incubated with a 2-fold excess of ligand AC-340 and a 3-fold excess of the NCoA2 NR2 peptide; crystals at 293 K in Na2 tartrate 1.1 M, MgCl2 0.2 M, Hepes 0.1 M pH 7.5; one LBD complex per asymmetric unit; refined to 2.1 Å; settings: both partners purified
T2 construct: Cloned into pET28b; the His tag was removed by thrombin, so residues of the vector may remain at the end; The crystal also holds the small molecule AC-340; also called zebrafish VDR; source: Escherichia coli BL21 DE3, purified (Ni Hitrap FF crude column, thrombin cleavage, size exclusion on HiLoad Superdex 75)
T2 sequence (looked up): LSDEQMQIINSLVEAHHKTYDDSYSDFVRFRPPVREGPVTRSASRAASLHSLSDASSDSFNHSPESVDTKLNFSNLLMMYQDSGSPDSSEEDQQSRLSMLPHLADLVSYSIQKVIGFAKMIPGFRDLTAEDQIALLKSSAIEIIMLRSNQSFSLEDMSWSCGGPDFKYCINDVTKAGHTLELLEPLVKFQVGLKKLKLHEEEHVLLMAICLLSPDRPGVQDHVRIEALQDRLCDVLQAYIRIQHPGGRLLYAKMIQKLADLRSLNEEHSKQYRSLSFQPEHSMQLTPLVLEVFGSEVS

Molecule: C=C1/C(=C\C=C2/CCC[C@]3(C)[C@@H]([C@H](C)CCCC(C)(C)O)CC[C@@H]23)C[C@@H](O)C[C@@H]1O [1,25D, 1α,25-dihydroxyvitamin D]
logFC 4931406C07Rik (B16–F10 cells; 100 nM): 0.647
logFC Abcd2 (B16–F10 cells; 100 nM): 2.727
logFC Ace (B16–F10 cells; 100 nM): 2.102
logFC Adamts14 (B16–F10 cells; 100 nM): 1.691
logFC Adamtsl5 (B16–F10 cells; 100 nM): 0.7958
logFC Adssl1 (B16–F10 cells; 100 nM): 0.8651
logFC Aqp1 (B16–F10 cells; 100 nM): 3.095
logFC Ass1 (B16–F10 cells; 100 nM): 1.083
logFC Atoh8 (B16–F10 cells; 100 nM): 1.866
logFC C3 (B16–F10 cells; 100 nM): 2.444
logFC Cebpd (B16–F10 cells; 100 nM): 0.9202
logFC Cib2 (B16–F10 cells; 100 nM): 0.656
logFC Crabp2 (B16–F10 cells; 100 nM): 1.516
logFC Cyp24a1 (B16–F10 cells; 100 nM): 6.454
logFC Dagla (B16–F10 cells; 100 nM): 0.6621
logFC Ddo (B16–F10 cells; 100 nM): 1.132
logFC Dhrs3 (B16–F10 cells; 100 nM): 1.185
logFC Dmpk (B16–F10 cells; 100 nM): 1.6
logFC Efcab6 (B16–F10 cells; 100 nM): 1.404
logFC Efhd1 (B16–F10 cells; 100 nM): 3.1104
logFC Elfn1 (B16–F10 cells; 100 nM): 4.174
logFC Enpp1 (B16–F10 cells; 100 nM): 1.029
logFC Enpp3 (B16–F10 cells; 100 nM): 1.066
logFC Fam83f (B16–F10 cells; 100 nM): 1.009
logFC Fam178b (B16–F10 cells; 100 nM): 0.6417
logFC Gadd45a (B16–F10 cells; 100 nM): 0.6305
logFC Gdpd5 (B16–F10 cells; 100 nM): 0.8468
logFC Gm5424 (B16–F10 cells; 100 nM): 1.087
logFC Grb14 (B16–F10 cells; 100 nM): 4.512
logFC Hcn2 (B16–F10 cells; 100 nM): 2.951
logFC Hes6 (B16–F10 cells; 100 nM): 0.8133
logFC Hoga1 (B16–F10 cells; 100 nM): 0.7079
logFC Hoxb9 (B16–F10 cells; 100 nM): 0.9861
logFC Inmt (B16–F10 cells; 100 nM): 4.174
logFC Itgal (B16–F10 cells; 100 nM): 2.511
logFC Lgr6 (B16–F10 cells; 100 nM): 1.733
logFC Lrtm2 (B16–F10 cells; 100 nM): 3.553
logFC Mal (B16–F10 cells; 100 nM): 1.086
logFC Matn2 (B16–F10 cells; 100 nM): 1.519
logFC Mmp28 (B16–F10 cells; 100 nM): 2.973
logFC Myl9 (B16–F10 cells; 100 nM): 1.815
logFC Neu3 (B16–F10 cells; 100 nM): 0.8227
logFC Nptx1 (B16–F10 cells; 100 nM): 1.67
logFC Obscn (B16–F10 cells; 100 nM): 1.291
logFC Pdlim2 (B16–F10 cells; 100 nM): 0.7794
logFC Prag1 (B16–F10 cells; 100 nM): 0.7325
logFC Prelp (B16–F10 cells; 100 nM): 4.153
logFC Ptges (B16–F10 cells; 100 nM): 2.985
logFC Rab7b (B16–F10 cells; 100 nM): 1.864
logFC Rac2 (B16–F10 cells; 100 nM): 2.0813
logFC Rom1 (B16–F10 cells; 100 nM): 0.7288
logFC Rtn2 (B16–F10 cells; 100 nM): 0.9272
logFC Scamp1 (B16–F10 cells; 100 nM): 0.6536
logFC Serpinb9b (B16–F10 cells; 100 nM): 0.64
logFC Sh3bgr (B16–F10 cells; 100 nM): 1.253
logFC Shpk (B16–F10 cells; 100 nM): 0.8108
logFC Sox8 (B16–F10 cells; 100 nM): 3.592
logFC Spp1 (B16–F10 cells; 100 nM): 3.391
logFC Srcin1 (B16–F10 cells; 100 nM): 2.803
logFC Tgm2 (B16–F10 cells; 100 nM): 2.227
logFC Tnni1 (B16–F10 cells; 100 nM): 6.667
logFC Ttc39c (B16–F10 cells; 100 nM): 1.046
logFC Vdr (B16–F10 cells; 100 nM): 3.982
logFC Wnt10a (B16–F10 cells; 100 nM): 1.853
H3K27 acetylation at the Spp1 VDRE [1]: ineffective
CYP24A1 induction on extending the dose range ([2]; SK-MEL-28 cells, 1,25D up to 1 mM): failed to enhance the induction of CYP24A1

IC50 (HDAC 10): 4.52 nM
Molecule: Cn1cc(CNCC2CCN(c3ncc(C(=O)NO)cn3)CC2)c2ccccc21 [Quisinostat]

Molecule: CCC(CC)(c1ccc(C(=O)NCCCCC(=O)NO)cc1)c1ccc(OCC(O)C(C)(C)C)c(C)n1 (stereo not drawn) [ZG-126]
Cyp24a1 gene expression induction [3]: more efficacious than 1,25D (and AM-193)
logFC Btn1a1 (B16–F10 cells; 10 μM): 8.367
logFC Cyp24a1 (B16–F10 cells; 10 μM): 8.537
logFC Elfn1 (B16–F10 cells; 10 μM): 7.8172
logFC Nccrp1 (B16–F10 cells; 10 μM): 7.976
logFC Tnni1 (B16–F10 cells; 10 μM): 9.358
Prelp gene induction [4]: most efficacious inducer
Tgm2 gene induction [4]: most efficacious inducer
VDR agonist activity in vivo (VDR): displays VDR agonist activity in vivo
CYP24A1 induction (VDR hyperagonism) ([2]; SK-MEL-28 cells, 10 μM): displayed hyperagonism

binding result [5]: binds
B1: coactivator NCoA2 NR2 peptide (human nuclear receptor coactivator 2, second NR box) (peptide)
peptide: KHKILHRLLQDSS
notes: also called NCoA2 peptide

From PMC12517324, “Hyperagonism of a Vitamin D Receptor Agonist/Histone Deacetylase Inhibitor Hybrid Molecule” (Journal of Medicinal Chemistry, 2025)
